Data on 6 compounds can be found in ChEMBL document CHEMBL4811290, “Exploiting the hydrophobic channel of the NNIBP: Discovery of novel diarylpyrimidines as HIV-1 NNRTIs against wild-type and K103N mutant viruses” (Bioorg Med Chem, 2021).

Broadly, the EC50 is the concentration giving half of the maximal effect. As usually defined, the CC50 is the concentration at which the toxic effect on the cells reaches its halfway point. By solubility is commonly meant the dissolved amount per volume that the medium holds. A higher solubility goes with much dissolved substance. The term IC50 denotes the concentration that gives 50% inhibition.

One series concerns MT4. Put plainly: Antiviral activity against wild type HIV-2 ROD infected in human MT4 cells assessed as inhibition of virus-induced cytopathic effect measured after 5 days by MTT assay. The format is functional, cell-based. As to conditions: Human immunodeficiency virus 2, ISOLATE ROD, time 5.0 day.
Series [1] relates to Human immunodeficiency virus 1. In words: Antiviral activity against wild type HIV-1 IIIB infected in human MT4 cells assessed as inhibition of virus-induced cytopathic effect measured after 5 days by MTT assay. The format is functional, organism-based. The conditions noted are these: Human immunodeficiency virus 1, IIIB, MT4, 120 h. (Damage to the host cells serves as the signal in cytopathic effect assays.)

For series [2], the system named is Human immunodeficiency virus 1. Put plainly: Antiviral activity against HIV1 harboring RT RES056 mutant infected in human MT4 cells assessed as inhibition of virus-induced cytopathic effect incubated for 5 days by MTT assay. The format is functional, organism-based. The conditions noted are these: Human immunodeficiency virus 1, MT4, 120 h.
The subject of series [3] is Human immunodeficiency virus 1. Put plainly: Antiviral activity against HIV1 harboring RT Y181C mutant infected in human MT4 cells assessed as inhibition of virus-induced cytopathic effect incubated for 5 days by MTT assay. The format is functional, organism-based. The conditions noted are these: Human immunodeficiency virus 1, MT4, 120 h.
The nature of series [4]: Cytotoxicity against mock-infected human MT4 cells incubated for 5 days by MTT assay. The format is cell-based. As to conditions: time 5 day. (Formazan colour is commonly taken as a measure of viable cells.)
Series [5] can be described thus: Selectivity index, ratio of CC50 for human MT4 cells to EC50 for Antiviral activity against HIV-1 IIIB infected in human MT4 cells. The format is toxicity, cell-based. The conditions noted are these: read-out: Selectivity Index.
Series [6] concerns Human immunodeficiency virus 1. Put plainly: Antiviral activity against HIV1 harboring RT L100I mutant infected in human MT4 cells assessed as inhibition of virus-induced cytopathic effect incubated for 5 days by MTT assay. The format is functional, organism-based. The conditions noted are these: Human immunodeficiency virus 1, MT4, 120 h.
Series [7] concerns Human immunodeficiency virus 1. In words: Antiviral activity against HIV1 harboring K103N mutant infected in human MT4 cells assessed as inhibition of virus-induced cytopathic effect incubated for 5 days by MTT assay. The format is functional, organism-based. The conditions noted are these: Human immunodeficiency virus 1, MT4, 120 h.
The nature of series [8]: Water solubility of compound at pH 7. The format is physicochemical.
Series [9] can be described thus: Water solubility of compound at pH 7.4. The format is physicochemical.
In series [10] the test system is Human immunodeficiency virus 1. In words: Antiviral activity against HIV1 harboring RT E138K mutant infected in human MT4 cells assessed as inhibition of virus-induced cytopathic effect incubated for 5 days by MTT assay. The conditions noted are these: Human immunodeficiency virus 1, MT4, 120 h. The format is functional, organism-based.
The subject of series [11] is Human immunodeficiency virus 1. In words: Antiviral activity against HIV1 harboring RT Y188L mutant infected in human MT4 cells assessed as inhibition of virus-induced cytopathic effect incubated for 5 days by MTT assay. The format is functional, organism-based. As to conditions: Human immunodeficiency virus 1, MT4, 120 h.
A short description of series [12]: Water solubility of compound at pH 2. The format is physicochemical.
In series [13] the target is Human immunodeficiency virus type 1 reverse transcriptase (Human immunodeficiency virus 1, UniProt Q72547). In words: Inhibition of HIV-1 reverse transcriptase assessed as inhibition of biotin-dUTP incorporation into cDNA measured after 1 hr by ELISA. Background: ELISA stands for enzyme-linked immunosorbent assay.
The test system of series [14] is Human immunodeficiency virus 1. In words: Antiviral activity against HIV1 harboring RT F227L/V106A mutant infected in human MT4 cells assessed as inhibition of virus-induced cytopathic effect incubated for 5 days by MTT assay. The conditions noted are these: Human immunodeficiency virus 1, MT4, 120 h. The format is functional, organism-based.

≈ marks a conversion by molar mass, not a printed value. Calls of active or inactive are those of the source. No cut-off for these calls is given here. Some results are limits rather than exact numbers.

As to `Cc1cc(C#CC=C2CCN(S(C)(=O)=O)CC2)cc(C)c1Oc1ccnc(Nc2ccc(C#N)cc2)n1`, in the series on MT4, the result was inactive. For the same compound, the 50% effective concentration (EC50) is 29 nM in series [1]; above 5490 nM in series [2]; 913 nM in series [3]; 282 nM in series [6]; 57 nM in series [7]; 170 nM in [10]. Further, the half-maximal effective concentration (EC50) in series [11] was 452 nM; in series [14] it was above 5490 nM. This compound came in with a 50% cytotoxic concentration (CC50) at 120 h in [4] of 5490 nM. In addition, in series [5], the selectivity ratio came to 186. In addition, the solubility turned out to be 27.1 µg/mL (≈ 52.8 µM) in series [8], 26.6 µg/mL (≈ 51.8 µM) in series [9] and 20.4 µg/mL (≈ 39.7 µM) in series [12]. Besides, in [13], the half-maximal inhibitory concentration (IC50) worked out at 1980 nM.
With `Cc1cc(C#N)cc(C)c1Oc1nc(Nc2ccc(C#N)cc2)nc(N)c1Br` [ETRAVIRINE], the result with MT4 was inactive. Further, the concentration for a half-maximal effect (EC50) was determined as 67 nM in series [2]; 20 nM in [3]; 8 nM in series [6]; 19 nM in series [10]; 21 nM in [11]; 20 nM in series [14]. In addition, the half-maximal cytotoxic concentration (CC50) at 120 h in [4] is above 4610 nM. Besides, the solubility in series [12] was below 1 µg/mL.
For the compound `Cc1cc(C#CC=C2CCNCC2)cc(C)c1Oc1ccnc(Nc2ccc(C#N)cc2)n1`, in the series on MT4, the outcome was inactive. Also, the EC50 was 16 nM in [1]; 1460 nM in series [2]; 281 nM in [3]; 231 nM in series [6]; 39 nM in [7]; 204 nM in series [10]. The EC50 came out at 211 nM in series [11] and 1270 nM in series [14]. Moreover, it took 4810 nM to reach half-maximal cytotoxicity in [4] (CC50 at 120 h). Further, the selectivity ratio in series [5] came out at 294. In addition, the values for the solubility in [8], in series [9] and in series [12] were 60.5 µg/mL (≈ 139 µM), 67 µg/mL (≈ 154 µM) and 47.3 µg/mL (≈ 109 µM), respectively. In addition, the IC50 in [13] came to 130 nM.
Turning to `CCC(=O)N1CCC(=CC#Cc2cc(C)c(Oc3ccnc(Nc4ccc(C#N)cc4)n3)c(C)c2)CC1`, in the series with MT4, the result was inactive. Moreover, the EC50 is 22 nM in series [1]; above 4420 nM in series [2]; 772 nM in series [3]; 253 nM in series [6]; 57 nM in series [7]; 171 nM in series [10]. The concentration for a half-maximal effect (EC50) was 382 nM in [11] and 1300 nM in [14]. In series [4], the midpoint of cytotoxicity, the CC50 at 120 h, lay at 4420 nM. Moreover, the selectivity ratio in [5] was 201. The values for the solubility in series [8], in [9] and in [12] were 62.2 µg/mL (≈ 127 µM), 66.5 µg/mL (≈ 135 µM) and 64.7 µg/mL (≈ 132 µM), respectively. Further, the IC50 in series [13] was 2980 nM.
Regarding `Cc1cn([C@H]2C[C@H](N=[N+]=[N-])[C@@H](CO)O2)c(=O)[nH]c1=O` [ZIDOVUDINE], the result in the series on MT4 was inactive. Also, the EC50 in [1] came out at 21 nM; in series [2], 24 nM; in series [3] it was 15 nM; in series [6] it was 9 nM; in series [7] it was 22 nM; in series [10], 35 nM. Further, the EC50 stood at 12 nM in [11] and 10 nM in series [14]. In addition, the half-maximal cytotoxic concentration (CC50) at 120 h in series [4] is above 7480 nM. Moreover, the selectivity ratio in series [5] was above 352.
As to `Cc1ccnc2c1NC(=O)c1cccnc1N2C1CC1` [NEVIRAPINE], in the series with MT4, the outcome was inactive. Moreover, the EC50 in series [1] was 160 nM; in series [2] it was above 15000 nM; in [3] it was 10500 nM; in [6] it was 2520 nM; in series [7], 6550 nM; in [10], 258 nM. For the same compound, the half-maximal effective concentration (EC50) in series [11] and in [14] was above 15000 nM throughout. Also, in series [4], the 50% cytotoxic concentration (CC50) at 120 h is above 15000 nM. Moreover, the selectivity ratio in series [5] is above 94.
